The values that follow come from PMC1435945, “Prediction of indirect interactions in proteins” (BMC Bioinformatics, 2006).

SMILES strings stand for the structures. Marks after values point to notes of the source that are not given here. Where a SMILES comes first, the peptide text is derived from it. [ ]: non-standard residue; d: D form. Tyr(3-I) = N[C@@H](Cc1ccc(O)c(I)c1)C(=O)O; Nle = CCCC[C@H](N)C(=O)O

Test [1] concerns the target S531 multiple chimeric melanocortin receptor. As to the kind of experiment: Radioligand binding saturation, chimera S531. The note with it: COS-1, S531, S-set, parts A/B/C MC5/MC3/MC1, pK ± SD.
Test [2] addresses S134 multiple chimeric melanocortin receptor. In words: Radioligand binding saturation, chimera S134. The conditions noted are these: COS-1, S134, S-set, parts A/B/C MC1/MC3/MC4, pK ± SD.
The target of test [3] is F451 multiple chimeric melanocortin receptor. As to the kind of experiment: Radioligand binding saturation, chimera F451. The note with it: COS-1, F451, F-set, parts A/B/C MC4/MC5/MC1, pK ± SD.
The target of the next test is MC3 receptor. The note with it: saturation; MC3 wt.; ref [31]; cited from earlier work. The source says:
(§1) Table 1 Affinities of multiple chimeric melanocortin receptors.

Another test concerns the target MC5 receptor. The note with it: saturation; MC5 wt.; ref [31]; cited from earlier work.
Excerpt: as §1

In the next test the target is MC4 receptor. The conditions noted are these: saturation; MC4 wt.; ref [31]; cited from earlier work.
Excerpt: as §1

The next test concerns the target MC1 receptor. The conditions noted are these: saturation; MC1 wt.; ref [31]; cited from earlier work.
Excerpt: as §1

Test [4] concerns the target F514 multiple chimeric melanocortin receptor. As to the kind of experiment: Radioligand binding saturation, chimera F514. The note with it: COS-1, F514, F-set, parts A/B/C MC5/MC1/MC4, pK ± SD.
Test [5] has as its target F354 multiple chimeric melanocortin receptor. In words: Radioligand binding saturation, chimera F354. The conditions noted are these: COS-1, F354, F-set, parts A/B/C MC3/MC5/MC4, pK ± SD.
Test [6] concerns the target F413 multiple chimeric melanocortin receptor. As to the kind of experiment: Radioligand binding saturation, chimera F413. The note with it: COS-1, F413, F-set, parts A/B/C MC4/MC1/MC3, pK ± SD.

On to `CCCC[C@H](NC(=O)[C@H](CO)NC(=O)[C@H](Cc1ccc(O)c(I)c1)NC(=O)[C@H](CO)NC(C)=O)C(=O)NCC(=O)N[C@@H](Cc1c[nH]cn1)C(=O)N[C@H](Cc1ccccc1)C(=O)N[C@@H](CCCNC(=N)N)C(=O)N[C@@H](Cc1c[nH]c2ccccc12)C(=O)NCC(=O)N[C@@H](CCCCN)C(=O)N1CCC[C@H]1C(=O)N[C@H](C(N)=O)C(C)C` [^125I-NDP-MSH, [^125I-Tyr^2, Nle^4, D-Phe^7]-α-MSH] (Ac-S[Tyr(3-I)]S[Nle]GH[dF]RWGKPV-NH2), for which the “pK (Kd)” value in [1] is on record as 8.96 ± 0.35; in test [2], 9.30 ± 0.26; in test [3] it was 9.06 ± 0.31; at MC3 receptor, 9.40^a; at MC5 receptor, 8.54^a; at MC4 receptor it was 8.64^a. The “pK (Kd)” value on MC1 receptor was 9.96^a; in [4], 9.19 ± 0.21; in test [5] it was 8.80 ± 0.16; in test [6], 8.62 ± 0.16.
